According to PMC3927474, “Whole body synthesis rates of DHA from α-linolenic acid are greater than brain DHA accretion and uptake rates in adult rats” (Journal of Lipid Research, 2014):
Several values for one entry are separate records, joined by “and”; a condition that tells them apart may be missing. Equal entries are not always repeated. Marks after values point to notes of the source that are not given here.

What was measured:
[1] = Balance study: n-3 and n-6 PUFA balance (intake, excretion, accretion, metabolic consumption); type: in vivo, rat; conditions: for Fecal excretion: mean % excretion applied to intake; for Fecal excretion / Metabolic consumption of dietary PUFAs: DHA group: refers to DHA; for Dietary PUFA excreted in the feces: 24 h feces at 8 weeks postweaning, percentage of intake; for Metabolic consumption of dietary PUFAs: n-3 PUFA, Eq. 1, 15 weeks
Method: All procedures were performed in accordance with the policies set out by the Canadian Council on Animal Care and were approved by the Animal Ethics Committee at the University of Toronto. Three Long Evans dams each with 18-day-old male Long Evans pups were ordered from Charles River Laboratories (St. Constant, QC, Canada). Pups were nonlittermates and each dam was housed with pups. Upon arrival, dams were allocated to one of the three diets (described below). When the pups were 21 days old, two pups from each dam were euthanized by high-energy head-focused microwave fixation (4.5 kW for 0.9 s). Brains were removed immediately and stored at -80°C until lipid analysis. Bodies were also stored at -80°C immediately after euthanization until analysis. The brains and bodies of these pups were used to determine the PUFA content of the rats at weaning (i.e., baseline PUFA content). […] For the balance study, the rats were weighed, food intake was determined, and uneaten food was replaced with fresh food on a weekly basis. Rats were euthanized by CO2 asphyxiation. Brains were removed and dissected sagittally. Carcasses and one half brain per rat were stored immediately at -80°C (to be later analyzed for lipid content). […] For the steady-state infusion study and the brain DHA uptake study, a jugular vein catheter was surgically implanted into the rats. […] Carcasses were thawed overnight in a refrigerator at 3°C, cut into pieces, and passed through a #12 hand grinder. After the whole body had passed through the grinder once, the homogenate was mixed together by hand and passed at least one more time through the grinder until the mixture was sufficiently homogeneous. Due to the small size of the pups all of the 21-day-old pup bodies were passed through the grinder together. […] New chloroform was added to the remaining aqueous phase, the mixture was once again centrifuged, and the chloroform layer was extracted and added to the previously extracted chloroform layer. […] One hemisphere was thawed briefly and dissected over ice to separate the brainstem, cerebellum, cortex, hippocampus, striatum, and the rest of the brain. […] The homogenizer was then washed with methanol, which was then transferred to the test tube containing the homogenized brain and KCl. […] The chloroform layer was extracted and new chloroform was added to the aqueous phase. […] At 8 weeks postweaning all the feces produced by a rat in 24 h were collected. […] Mean PUFA excretion (percentage of intake) was determined and applied to all animals to determine PUFA excretion. […] Nu-Check Prep, Elysian, MN) was added to the TLE. […] Samples were injected in […] mode. The injector and detector ports were set at 250°C. […] The carrier gas was helium, set to a constant flow rate of 0.7 ml/min. Peaks were identified by retention times of authentic FAME standards (Nu-Chek Prep). […] The concentrations were expressed on a per gram basis then multiplied by total weight of the tissue to determine the total amount of each fatty acid in the tissue.

[2] = Excerpt: At 15 weeks postweaning, rats were subjected to surgery to implant a catheter into their jugular vein. The animals were anesthetized using isoflurane inhalation (5% induction, 1–3% maintenance). Before the incision was made, hair was shaved from the incision site and the site was sterilized with iodine and ethanol. A transverse incision was made anterior to the upper thorax. The jugular vein was located by blunt dissection. The vein was isolated and tied off. The vein was then nicked and a catheter (PE 50; Intramedic, Sparks, MD) with a 3.5 cm silastic tubing end (VWR, Mississauga, ON, Canada) was inserted into the vein. The catheter was secured using 3.0 silk sutures and a 16 gauge Angiocath (Becton Dickinson, Mississauga, ON, Canada) was used to guide the catheter subcutaneously to a site outside the body near the scapula. An incision was made at this site and the catheter was tucked beneath the skin at the incision site. The incision site was stapled to protect the catheter from the rats. The incision site on the chest was closed with 4.0 silk sutures and the rats were allowed to recover from the anesthetic under a heat lamp. Approximately 24 h after the surgery, the tail vein of the rats was cannulated with a 24 gauge Angiocath (Becton Dickinson). While the rats were restrained, the staple closing the incision site on the scapula was removed and the jugular vein catheter was connected to a longer polyethylene catheter. The rats were then placed in an infusion box that contained food, a chew toy, and bedding from the rat's cage. The tail vein catheter was then connected to an infusion line. Rats were able to move freely within the infusion box throughout the infusion.
Modified from the method of Rapoport, Igarashi, and Gao ([38]); 4.5 μmol/100 g body weight of ^2H-ALA (^2H14-ALA, purity >95% confirmed by GC-FID and GC-MS; Cayman Chemical, Ann Arbor, MI) was infused into the tail vein for 3 h. To prepare the infusate, a known amount of ^2H-ALA was dissolved in 5 mM HEPES buffer (pH 7.4) containing 50 mg/ml fatty acid-free BSA. The infusate was mixed by sonication at 37°C. An infusion pump (Harvard Apparatus PHD 2000; Holliston, MA) was used to infuse 3.78 ml of tracer solution at a constant rate of 0.021 ml/min for 3 h. Immediately before the infusion and every 30 min during the infusion 0.2 ml of blood was drawn from the jugular vein. The jugular vein catheter was flushed with heparinized saline (5% by volume) after every blood draw to prevent coagulation in the line. After 180 min of the infusion, 1 ml of blood was drawn from the jugular vein and the animals were euthanized with a lethal injection of T-61 into the tail vein. All blood samples were centrifuged for 10 min (PC-100 microcentrifuge; Diamed, ON, Canada) and the plasma was collected and stored at −80°C.
Plasma volume was determined using the method of Schreihofer, Hair, and Stepp as modified by Gao et al.([24], [39]). Briefly, a known amount of Evans Blue dye was injected into the tail veins of the rats. After 15 min, 1 ml of blood was drawn from the jugular vein, twice. The plasma was collected as described above, and 0.1 ml of plasma was diluted into 1 ml of saline. Absorbance at 604 nm was measured with a Nanodrop 1000 and by comparing the absorbance to a standard curve, the concentration of the dye was determined.
Fifty microliters of plasma were added to a test tube which contained known amounts of unesterified 17:0 standard and di-17:0 phosphatidylcholine standard. Lipids were extracted from the plasma using the method of Folch, Lees, and Sloane Stanley ([28]), as described above.
Thin layer chromatography (TLC) was used to separate esterified and unesterified lipids. The TLE was dried under N2 and reconstituted in 250 μl chloroform. TLC plates (TLC silica gel 60, EMD) that were washed in chloroform and methanol (2:1) were activated by heat at 100°C for 1 h.

[3] = average over 15 weeks, listed as DHA diet

CC/C=C\C/C=C\C/C=C\CCCCCCCC(=O)O [ALA, α-linolenic acid]
Fecal Excretion of LNA ([1]; 15 weeks): 877 µmol
Metabolic consumption of dietary PUFA (n-6) ([1]; 15 weeks): 147161 µmol
Fecal excretion ([1]; 15 weeks): 57 ± 2 µmol
Body Content of n-6 PUFA, Day 105 ([1]; 15 wk diet): 29170 µmol
Brain Content of n-6 PUFA, Day 105 ([1]; 15 wk diet): 20 µmol
Total Accretion: 18:3n-6 ([1]; 15 wk diet): 52 µmol
Total Accretion: 20:2n-6 ([1]; 15 wk diet): 169 µmol
Total Accretion: 22:4n-6 ([1]; 15 wk diet): 138 µmol
Total Accretion: ARA ([1]; 15 wk diet): 1806 µmol
Total Accretion: LNA ([1]; 15 wk diet): 25157 µmol
Total Accretion: Total n-6 PUFA ([1]; 15 wk diet): 27489 µmol
Body content of n-3 PUFAs, Day 105 ([1]; 15 wk diet, n = 11): 2352 ± 166^b μmol
Brain content of n-3 PUFAs, Day 105 ([1]; 15 wk diet, n = 11): 14 ± 2^b μmol
Dietary PUFA excreted in the feces [1]: 0.27 ± 0.002%
Brain DHA accretion rate (balance study) ([1]; average over 15 weeks): 0.032 ± 0.005 µmol/day
Total DHA synthesis-accretion rate (balance study) ([1]; average over 15 weeks, body + brain, listed as ALA diet): 4.2 µmol/day and 4.2 ± 0.4 µmol/day
DHA synthesis and accretion in ALA-fed rats relative to brain DHA accretion of DHA-fed rats ([1]; balance study): 100 fold
Dietary ALA metabolically consumed ([1]; balance study): approximately 90%
Body Content of n-6 PUFA, Day 0 ([1]; baseline): 1491 µmol
Brain Content of n-6 PUFA, Day 0 ([1]; baseline): 14 µmol
Body content of n-3 PUFAs, Day 0 ([1]; baseline, 21-day-old pups, n = 2): 139 ± 3 µmol
Brain content of n-3 PUFAs, Day 0 ([1]; baseline, n = 2): 10 ± 0.6 µmol
Total accretion: 20:3n-3 ([1]; body + brain, 15 wk diet): 110 ± 11^ab μmol
Total accretion: ALA ([1]; body + brain, 15 wk diet): 1500 ± 100^b μmol
Total accretion: DHA ([1]; body + brain, 15 wk diet): 440 ± 39^b μmol
Total accretion: DPAn-3 ([1]; body + brain, 15 wk diet): 90 ± 7^b μmol
Total accretion: EPA ([1]; body + brain, 15 wk diet): 70 ± 10^b μmol
Total accretion: Total n-3 PUFA ([1]; body + brain, 15 wk diet): 2209 ± 107^b μmol
Metabolic consumption of dietary PUFAs [1]: 19037 ± 617^b μmol
Mean plasma [^2H-ALA]unesterified during infusion ([2]; 4.5 μmol/100 g ^2H-ALA i.v. over 3 h): 2.5 ± 0.5 nmol/mL
Smax,i (maximum first derivative) ([2]; 15 wk diet, 3 h ^2H-ALA infusion, n = 4): 0.339 ± 0.135 nmol/min
Daily Secretion Rate (daily DHA synthesis rate) ([2]; 15 wk diet, n = 4): 1452 ± 395 nmol/day
FDHA (turnover rate of esterified plasma DHA) ([2]; 15 wk diet, n = 4): 0.0002 ± 4e-05 min⁻¹
Jsyn (synthesis rate of DHA from ALA) ([2]; 15 wk diet, n = 4): 1.008 ± 0.274 nmol/min
k1,DHA (synthesis-secretion coefficient for DHA synthesis from ALA) ([2]; 15 wk diet, n = 4): 0.131 ± 0.04 mL/min
DHA synthesis rate relative to brain DHA uptake rate ([2]; ALA-fed rats, infusion synthesis vs ^14C-DHA uptake): approximately 3 fold
DHA synthesis rate from ALA (steady-state infusion) ([2]; at 15 weeks postweaning): 1.5 µmol/day

CC/C=C\C/C=C\C/C=C\C/C=C\C/C=C\C/C=C\CCC(=O)O [DHA, Docosahexaenoic acid]
Metabolic consumption of dietary PUFA (n-6) ([1]; 15 weeks): 157517 µmol
Fecal excretion ([1]; 15 weeks): 10 ± 0.4 µmol
Body Content of n-6 PUFA, Day 105 ([1]; 15 wk diet): 32391 µmol
Brain Content of n-6 PUFA, Day 105 ([1]; 15 wk diet): 17 µmol
Total Accretion: 18:3n-6 ([1]; 15 wk diet): 41 µmol
Total Accretion: 20:2n-6 ([1]; 15 wk diet): 167 µmol
Total Accretion: 22:4n-6 ([1]; 15 wk diet): 97 µmol
Total Accretion: ARA ([1]; 15 wk diet): 1539 µmol
Total Accretion: LNA ([1]; 15 wk diet): 28810 µmol
Total Accretion: Total n-6 PUFA ([1]; 15 wk diet): 30720 µmol
Dietary PUFA excreted in the feces [1]: 0.07 ± 0.02%
Brain DHA accretion rate (balance study) ([1]; average over 15 weeks): 0.042 ± 0.007 µmol/day
Brain DHA accretion rate (balance study) [1, 3]: 0.042 µmol/day
DHA uptake and accretion rate into the brain (balance study) [1, 3]: 42 nmol/day and 42 ± 7 nmol/day
Brain Content of n-6 PUFA, Day 0 ([1]; baseline): 14 µmol
Total accretion: DHA ([1]; body + brain, 15 wk diet): 1119 ± 62^c μmol
Metabolic consumption of dietary PUFAs [1]: 15783 ± 548^b,** μmol
Reduction of DHA synthesis by 2% dietary DHA ([2]; synthesis rate not quantifiable in DHA-fed rats): greater than 30 fold
